Legend:
PI 3-kinase alpha [1] = target: T1, PI 3-kinase alpha (Homo sapiens, UniProt P42336); experiment: Kinase Glo Luminescent Kinase Assay (Kglo), assay A; assay type: biochemical; settings: read-out: Assay A PI3Kα IC50
Target sequence in this assay (P42336 whole entry): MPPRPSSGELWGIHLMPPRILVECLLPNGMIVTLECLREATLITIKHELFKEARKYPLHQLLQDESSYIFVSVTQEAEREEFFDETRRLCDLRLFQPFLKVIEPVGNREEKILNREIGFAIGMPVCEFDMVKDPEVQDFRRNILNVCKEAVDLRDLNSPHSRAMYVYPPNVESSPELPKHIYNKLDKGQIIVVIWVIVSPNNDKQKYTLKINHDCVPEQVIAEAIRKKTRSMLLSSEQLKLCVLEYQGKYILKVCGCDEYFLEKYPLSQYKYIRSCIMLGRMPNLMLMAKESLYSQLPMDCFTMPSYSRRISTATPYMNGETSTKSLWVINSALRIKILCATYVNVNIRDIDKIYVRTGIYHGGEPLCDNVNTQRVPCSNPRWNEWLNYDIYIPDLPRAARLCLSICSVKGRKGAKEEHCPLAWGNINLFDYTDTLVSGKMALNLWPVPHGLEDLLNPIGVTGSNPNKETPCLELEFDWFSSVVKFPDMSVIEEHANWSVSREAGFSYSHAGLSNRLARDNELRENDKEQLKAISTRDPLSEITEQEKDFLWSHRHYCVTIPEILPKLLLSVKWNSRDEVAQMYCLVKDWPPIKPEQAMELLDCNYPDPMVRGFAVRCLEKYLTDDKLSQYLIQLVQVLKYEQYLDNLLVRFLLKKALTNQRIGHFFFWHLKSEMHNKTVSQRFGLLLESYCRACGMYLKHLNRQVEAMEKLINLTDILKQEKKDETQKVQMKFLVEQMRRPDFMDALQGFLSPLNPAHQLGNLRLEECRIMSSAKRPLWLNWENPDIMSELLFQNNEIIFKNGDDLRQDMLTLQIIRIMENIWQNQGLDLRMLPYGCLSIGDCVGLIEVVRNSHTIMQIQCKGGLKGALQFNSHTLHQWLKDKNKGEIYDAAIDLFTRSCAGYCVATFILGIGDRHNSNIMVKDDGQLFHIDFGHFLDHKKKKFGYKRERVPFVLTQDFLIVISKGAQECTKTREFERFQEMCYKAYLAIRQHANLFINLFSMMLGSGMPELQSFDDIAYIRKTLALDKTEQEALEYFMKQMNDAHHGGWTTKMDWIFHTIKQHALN

PI 4-kinase beta = PI 4-kinase beta (Homo sapiens, UniProt Q9UBF8); experiment: Kinase Glo Luminescent Kinase Assay (Kglo), assay D; assay type: biochemical; settings: read-out: Assay D PI4Kβ IC50
PI 3-kinase gamma [2] = target: T2, PI 3-kinase gamma (Homo sapiens, UniProt P48736); experiment: TR-FRET Adapta assay, assay E; assay type: biochemical; settings: read-out: Assay E PI3Kγ IC50
T2 sequence (P48736 whole entry): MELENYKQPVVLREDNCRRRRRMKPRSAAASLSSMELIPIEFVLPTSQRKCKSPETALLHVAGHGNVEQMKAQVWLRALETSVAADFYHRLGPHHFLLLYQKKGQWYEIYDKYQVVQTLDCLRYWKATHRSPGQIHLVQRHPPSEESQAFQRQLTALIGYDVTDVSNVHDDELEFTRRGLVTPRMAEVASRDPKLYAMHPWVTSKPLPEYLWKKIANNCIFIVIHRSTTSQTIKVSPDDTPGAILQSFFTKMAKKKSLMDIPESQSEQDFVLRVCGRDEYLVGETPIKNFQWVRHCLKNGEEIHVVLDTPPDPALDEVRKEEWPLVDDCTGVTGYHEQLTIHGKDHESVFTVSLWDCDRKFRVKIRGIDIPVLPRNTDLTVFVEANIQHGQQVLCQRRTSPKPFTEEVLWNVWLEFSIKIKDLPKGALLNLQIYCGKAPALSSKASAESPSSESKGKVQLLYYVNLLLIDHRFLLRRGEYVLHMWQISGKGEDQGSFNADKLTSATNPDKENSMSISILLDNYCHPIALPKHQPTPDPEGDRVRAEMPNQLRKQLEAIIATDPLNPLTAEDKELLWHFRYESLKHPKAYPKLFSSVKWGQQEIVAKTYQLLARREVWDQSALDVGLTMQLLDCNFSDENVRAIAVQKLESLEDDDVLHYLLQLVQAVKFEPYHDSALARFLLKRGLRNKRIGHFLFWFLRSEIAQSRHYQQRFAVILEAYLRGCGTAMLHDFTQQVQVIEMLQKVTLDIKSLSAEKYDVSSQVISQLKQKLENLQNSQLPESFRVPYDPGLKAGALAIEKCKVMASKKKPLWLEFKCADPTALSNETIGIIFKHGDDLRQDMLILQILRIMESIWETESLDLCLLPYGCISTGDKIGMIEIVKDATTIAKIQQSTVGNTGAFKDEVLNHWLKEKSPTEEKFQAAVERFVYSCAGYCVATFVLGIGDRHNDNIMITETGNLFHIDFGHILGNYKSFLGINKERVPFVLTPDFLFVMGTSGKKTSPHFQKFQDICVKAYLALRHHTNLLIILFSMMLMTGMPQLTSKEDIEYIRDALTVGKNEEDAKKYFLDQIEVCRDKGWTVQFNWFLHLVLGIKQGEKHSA

PI 3-kinase alpha [3] = target: T1, PI 3-kinase alpha; experiment: Cellular assay H2, p-AKT (Ser473) in Rat-1 cells, HTRF format; assay type: cell-based; settings: asterisked data: version H2 (HTRF format), read-out: Assay H PI3Kα IC50
Target sequence in this assay (P42336 whole entry): as the sequence (P42336 whole entry) above
Target sequence in this assay (Q63787 whole entry partner): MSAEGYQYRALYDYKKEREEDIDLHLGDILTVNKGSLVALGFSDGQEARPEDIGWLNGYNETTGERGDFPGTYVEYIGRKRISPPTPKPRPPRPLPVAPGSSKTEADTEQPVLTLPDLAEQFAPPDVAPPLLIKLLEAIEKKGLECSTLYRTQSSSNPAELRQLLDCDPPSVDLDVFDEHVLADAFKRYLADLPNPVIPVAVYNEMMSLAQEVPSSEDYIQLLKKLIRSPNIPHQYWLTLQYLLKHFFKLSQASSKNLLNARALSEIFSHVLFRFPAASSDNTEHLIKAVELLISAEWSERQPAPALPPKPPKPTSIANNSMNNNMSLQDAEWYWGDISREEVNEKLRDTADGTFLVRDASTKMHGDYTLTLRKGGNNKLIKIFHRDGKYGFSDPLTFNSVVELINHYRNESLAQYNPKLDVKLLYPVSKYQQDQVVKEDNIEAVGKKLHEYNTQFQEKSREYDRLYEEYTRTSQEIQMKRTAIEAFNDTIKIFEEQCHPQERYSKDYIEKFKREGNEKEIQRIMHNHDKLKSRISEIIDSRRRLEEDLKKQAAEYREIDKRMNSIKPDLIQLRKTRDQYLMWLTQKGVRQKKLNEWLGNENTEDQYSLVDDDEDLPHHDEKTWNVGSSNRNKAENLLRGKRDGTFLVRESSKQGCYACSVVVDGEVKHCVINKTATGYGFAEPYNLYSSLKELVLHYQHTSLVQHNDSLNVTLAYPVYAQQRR
Experimental: (§1) Cellular Assays for PI 3-Kinase Alpha (H2), Beta (12) and Delta (J2): HTRF (Homogeneous Time Resolved Fluorescence) Format
(§2) All cell lines were cultivated in complete growth medium (DMEM high glucose GlutaMAX™ Pyruvate, 10% (v/v) fetal bovine serum, 0.1 mM MEM NEAA, 25 mM HEPES, puromycin 10 μg/mL, 100 U/ml Penicillin, 100 μg/ml Streptomycin) to 90% confluency at 37° C./5% CO2/90% humidity in a humidified CO2 incubator and were split twice a week.
(§3) Semi-automated preparation of cell lysates: For low (inhibited) controls, 0.9 mM NVP-BGT226-AF-1 in 90% (v/v) DMSO was added to the compound master plate. For compound testing, the cells were seeded at a density of 4000 (Rat-1_PI3Kdelta), 8000 (Rat-1_PI3Kalpha), or 6500 (Rat-1_PI3Kbeta) cells in 30 μl complete growth medium into cell culture treated 384-well plates and were grown at 37° C./5% CO2/90% humidity for 24 h. 10 μl of the compound predilutions were transferred to the cells.

[4] = Microsomal clearance assay (M); settings: intrinsic clearance in rat liver microsomes
Experimental: The experiments were performed in 96-well glass plates at 37° C. on an automated Tecan EVO platform. Test compounds at a concentration of 10 mM in pure DMSO were diluted 1:1000 in water to 10 μM. […] Reactions were initiated by the addition of 150 μL of a cofactor solution containing 2 mM NADPH.

PI 3-kinase beta [5] = target: T3, PI 3-kinase beta (Homo sapiens, UniProt P42338); experiment: Kinase Glo Luminescent Kinase Assay (Kglo), assay B; assay type: biochemical; settings: read-out: Assay B PI3Kβ IC50
Target sequence in this assay (P42338 whole entry): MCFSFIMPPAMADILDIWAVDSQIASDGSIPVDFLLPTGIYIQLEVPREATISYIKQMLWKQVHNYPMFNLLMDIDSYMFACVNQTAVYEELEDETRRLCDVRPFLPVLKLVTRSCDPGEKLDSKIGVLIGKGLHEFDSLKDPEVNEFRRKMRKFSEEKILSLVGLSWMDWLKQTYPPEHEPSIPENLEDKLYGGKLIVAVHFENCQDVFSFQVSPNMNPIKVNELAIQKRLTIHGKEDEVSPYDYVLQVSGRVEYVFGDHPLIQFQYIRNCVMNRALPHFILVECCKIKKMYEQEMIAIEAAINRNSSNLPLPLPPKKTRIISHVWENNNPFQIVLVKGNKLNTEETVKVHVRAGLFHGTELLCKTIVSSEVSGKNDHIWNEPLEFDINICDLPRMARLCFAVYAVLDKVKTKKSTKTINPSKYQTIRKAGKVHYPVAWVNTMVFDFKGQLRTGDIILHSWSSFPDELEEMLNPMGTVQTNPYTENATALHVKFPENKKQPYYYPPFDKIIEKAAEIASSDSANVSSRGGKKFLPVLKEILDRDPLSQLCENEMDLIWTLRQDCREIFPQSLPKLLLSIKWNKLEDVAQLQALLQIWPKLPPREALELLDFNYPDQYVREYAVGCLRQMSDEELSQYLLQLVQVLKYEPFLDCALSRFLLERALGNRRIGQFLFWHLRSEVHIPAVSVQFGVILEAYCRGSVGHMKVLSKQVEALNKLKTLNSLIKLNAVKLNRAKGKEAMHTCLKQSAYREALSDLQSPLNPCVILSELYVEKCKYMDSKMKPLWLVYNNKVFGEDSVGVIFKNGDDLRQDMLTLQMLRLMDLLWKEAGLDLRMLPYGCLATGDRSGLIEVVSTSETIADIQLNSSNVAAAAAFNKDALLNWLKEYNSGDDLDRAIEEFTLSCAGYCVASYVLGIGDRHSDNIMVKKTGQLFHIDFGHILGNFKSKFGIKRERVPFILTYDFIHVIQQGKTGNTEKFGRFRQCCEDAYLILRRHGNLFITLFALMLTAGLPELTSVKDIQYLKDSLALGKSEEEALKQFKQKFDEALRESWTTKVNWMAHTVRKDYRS
Target sequence in this assay (P27986 461-568 partner): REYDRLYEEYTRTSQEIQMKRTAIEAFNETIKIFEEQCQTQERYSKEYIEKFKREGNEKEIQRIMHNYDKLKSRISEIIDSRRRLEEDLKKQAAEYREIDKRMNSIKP

Vps34 = Vps34 (Homo sapiens, UniProt Q8NEB9); experiment: Kinase Glo Luminescent Kinase Assay (Kglo), assay C; assay type: biochemical; settings: read-out: Assay C VPS34 IC50
Sequence of Vps34 (Q8NEB9 whole entry, species assumed): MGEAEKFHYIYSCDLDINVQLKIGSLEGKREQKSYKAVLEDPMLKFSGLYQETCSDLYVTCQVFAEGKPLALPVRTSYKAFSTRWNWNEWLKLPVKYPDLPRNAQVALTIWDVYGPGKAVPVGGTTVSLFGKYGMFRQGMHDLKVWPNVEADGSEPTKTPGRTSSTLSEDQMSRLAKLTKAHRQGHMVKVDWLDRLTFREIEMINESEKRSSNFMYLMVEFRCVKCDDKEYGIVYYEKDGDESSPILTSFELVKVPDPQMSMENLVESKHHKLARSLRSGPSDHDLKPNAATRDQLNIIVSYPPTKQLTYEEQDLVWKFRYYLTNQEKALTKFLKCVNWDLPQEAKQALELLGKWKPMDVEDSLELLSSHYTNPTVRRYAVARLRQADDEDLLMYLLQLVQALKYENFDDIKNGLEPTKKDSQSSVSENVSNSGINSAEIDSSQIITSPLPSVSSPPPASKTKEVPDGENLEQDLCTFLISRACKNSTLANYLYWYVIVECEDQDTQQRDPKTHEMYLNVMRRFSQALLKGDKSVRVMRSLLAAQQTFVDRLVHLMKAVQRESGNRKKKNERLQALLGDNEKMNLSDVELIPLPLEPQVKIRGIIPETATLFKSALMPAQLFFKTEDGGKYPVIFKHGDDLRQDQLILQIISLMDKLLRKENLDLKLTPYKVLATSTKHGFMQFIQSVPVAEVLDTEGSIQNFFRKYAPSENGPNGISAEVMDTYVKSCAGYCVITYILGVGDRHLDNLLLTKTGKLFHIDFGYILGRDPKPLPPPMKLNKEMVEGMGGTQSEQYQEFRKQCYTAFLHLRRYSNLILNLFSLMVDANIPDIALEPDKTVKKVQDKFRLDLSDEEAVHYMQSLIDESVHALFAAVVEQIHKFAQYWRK

PI 3-kinase beta [6] = target: T3, PI 3-kinase beta; experiment: Cellular assay I2, p-AKT (Ser473) in Rat-1 cells, HTRF format; assay type: cell-based; settings: asterisked data: version I2 (HTRF format), read-out: Assay I PI3Kβ IC50
Experimental: as §1, §2, §3

PI 3-kinase delta [7] = target: T4, PI 3-kinase delta (Homo sapiens, UniProt O00329); experiment: Cellular assay J2, p-AKT (Ser473) in Rat-1 cells, HTRF format; assay type: cell-based; settings: asterisked data: version J2 (HTRF format), read-out: Assay J PI3Kδ IC50
Experimental: as §1, §2, §3

PI 3-kinase delta [8] = target: T4, PI 3-kinase delta; experiment: TR-FRET Adapta assay, assay F
mTOR = mTOR (Homo sapiens, UniProt P42345); experiment: Lanthascreen kinase binding assay, assay G; settings: read-out: Assay G mTOR IC50
Experimental: Lanthascreen™ Kinase Binding Assay for mTOR (G)
Binding of an inhibitor to the kinase competes for binding with the tracer, resulting in a loss of FRET.
50 nL of compound dilutions were dispensed onto white 384-well small volume polystyrene plate.

PI 3-kinase alpha [9] = target: T1, PI 3-kinase alpha; experiment: Cellular assay H1, p-Akt (S473) in Rat-1 cells, Surefire format; assay type: cell-based; settings: non-asterisked data: version H1 (Surefire format), Rat-1 cells; read-out: Assay H PI3Kα IC50
Target sequence in this assay (P42336 whole entry): as the sequence (P42336 whole entry) above
Target sequence in this assay (Q63787 whole entry partner): as the sequence (Q63787 whole entry partner) above

PI 3-kinase beta [10] = target: T3, PI 3-kinase beta; experiment: Cellular assay I1, p-Akt (S473) in Rat-1 cells, Surefire format; assay type: cell-based; settings: non-asterisked data: version I1 (Surefire format), Rat-1 cells; read-out: Assay I PI3Kβ IC50
PI 3-kinase delta [11] = target: T4, PI 3-kinase delta; experiment: Cellular assay J1, p-Akt (S473) in Rat-1 cells, Surefire format; assay type: cell-based; settings: non-asterisked data: version J1 (Surefire format), Rat-1 cells; read-out: Assay J PI3Kδ IC50
PI 3-kinase gamma [12] = target: T2, PI 3-kinase gamma; experiment: Cellular U937 AKT assay K1 (MSD); assay type: cell-based; settings: U937 cells, K1 format; read-out: Assay K1 PI3Kγ IC50
PI 3-kinase gamma [13] = target: T2, PI 3-kinase gamma; experiment: Cellular U937 AKT assay K2 (HTRF); assay type: cell-based; settings: U937 cells, K2 format; read-out: Assay K2 PI3Kγ IC50
[14] = test system: IL-8-induced neutrophil shape change in human whole blood; experiment: Whole blood neutrophil shape change assay (L); assay type: cell-based; settings: Homo sapiens, Neutrophil, IL-8, human whole blood, read-out: Assay L WBSC IC50

Structure (SMILES)	IC50 (PI 3-kinase alpha [1])	IC50 (PI 4-kinase beta)	IC50 (PI 3-kinase gamma [2])	Assay M RLM CI(int) [4]	IC50 (PI 3-kinase beta [5])	IC50 (Vps34)	IC50 (PI 3-kinase beta [6])	IC50 (PI 3-kinase delta [7])	IC50 (PI 3-kinase delta [8]; read-out: Assay F PI3Kδ IC50)	IC50 (mTOR)	IC50 (PI 3-kinase alpha [9])	IC50 (PI 3-kinase beta [10])	IC50 (PI 3-kinase delta [11])	IC50 (PI 3-kinase gamma [12])	IC50 (PI 3-kinase gamma [13])	IC50 [14]	IC50 (PI 3-kinase delta [8])	IC50 (PI 3-kinase alpha [3])
Cc1ncc(-c2nc(-c3cc(S(=O)(=O)NC[C@H]4CCCO4)ccc3C)cnc2N)s1 (single isomer, unassigned) [Example 45.6b, (R)-3-(5-Amino-6-(2-methylthiazol-5-yl)pyrazin-2-yl)-4-methyl-N-((tetrahydrofuran-2-yl)methyl)benzenesulfonamide or (S)-3-(5-Amino-6-(2-methylthiazol-5-yl)pyrazin-2-yl)-4-methyl-N-((tetrahydrofuran-2-yl)methyl)benzenesulfonamide]	380 nM	> 10000 nM	42 nM	237 µL/min/mg														1760 nM
Cc1ccc(S(=O)(=O)NCC2(C)COC2)cc1-c1cnc(N)c(-n2cncn2)n1 [Example 29, 3-(5-Amino-6-[1,2,4]triazol-1-yl-pyrazin-2-yl)-4-methyl-N-(3-methyl-oxetan-3-ylmethyl)-benzenesulfonamide]	1300 nM	5200 nM	9 nM	62 µL/min/mg	6800 nM	> 9100 nM			910 nM	> 9100 nM	4630 nM	8080 nM	6610 nM	206 nM	314 nM	956 nM		
Cc1ccc(S(=O)(=O)NCC(C)(C)O)cc1-c1cnc(N)c(-c2cnc(C3CC3)s2)n1 [Example 21, 3-[5-Amino-6-(2-cyclopropyl-thiazol-5-yl)-pyrazin-2-yl]-N-(2-hydroxy-2-methyl-propyl)-4-methyl-benzenesulfonamide]	40 nM	1500 nM	6 nM	109 µL/min/mg	150 nM	1400 nM			80 nM	690 nM	510 nM	590 nM	460 nM	18 nM	90 nM	244 nM		
Cc1cc(F)c(S(=O)(=O)NCC(C)(C)O)cc1-c1cnc(N)c(-n2cncn2)n1 [Example 122, 5-(5-Amino-6-(1H-1,2,4-triazol-1-yl)pyrazin-2-yl)-2-fluoro-N-(2-hydroxy-2-methylpropyl)-4-methylbenzenesulfonamide]	490 nM	1900 nM	85 nM	26 µL/min/mg	2200 nM	> 10000 nM			1600 nM	6600 nM	2280 nM	1490 nM	1190 nM	151 nM	296 nM	988 nM		
Cc1ncc(-c2nc(-c3cc(S(=O)(=O)NC[C@H]4CCCO4)ccc3C)cnc2N)s1 (single isomer, unassigned) [Example 45.6a, (R)-3-(5-Amino-6-(2-methylthiazol-5-yl)pyrazin-2-yl)-4-methyl-N-((tetrahydrofuran-2-yl)methyl)benzenesulfonamide or (S)-3-(5-Amino-6-(2-methylthiazol-5-yl)pyrazin-2-yl)-4-methyl-N-((tetrahydrofuran-2-yl)methyl)benzenesulfonamide]	70 nM	4100 nM	9 nM	228 µL/min/mg														820 nM
Cc1ncc(-c2nc(-c3cc(S(=O)(=O)NCC(C)(C)O)ccc3C)cnc2N)o1 [Example 126, 3-(5-Amino-6-(2-methyloxazol-5-yl)pyrazin-2-yl)-N-(2-hydroxy-2-methylpropyl)-4-methylbenzenesulfonamide]	280 nM	> 10000 nM	57 nM	20 µL/min/mg	3100 nM	> 10000 nM	> 10000 nM	4240 nM	1000 nM									4000 nM
Cc1ncn(-c2nc(-c3cc(S(=O)(=O)NCC(C)(C)O)ccc3C)cnc2N)n1 [Example 25, 3-[5-Amino-6-(3-methyl-[1,2,4]triazol-1-yl)-pyrazin-2-yl]-N-(2-hydroxy-2-methyl-propyl)-4-methyl-benzenesulfonamide]	620 nM	> 10000 nM	79 nM	71 µL/min/mg	3150 nM	> 10000 nM			1030 nM	210 nM	2190 nM	1700 nM	1390 nM	153 nM	2340 nM	742 nM		
Cc1ccc(S(=O)(=O)NCC2(C)COC2)cc1-c1cnc(N)c(-c2cnn(C)c2)n1 [Example 5, 3-[5-Amino-6-(1-methyl-1H-pyrazol-4-yl)-pyrazin-2-yl]-4-methyl-N-(3-methyl-oxetan-3-ylmethyl)-benzenesulfonamide]	680 nM	6700 nM	12 nM	26 µL/min/mg	690 nM	> 10000 nM			1000 nM	> 10000 nM	> 10000 nM	> 10000 nM	3450 nM	78 nM	261 nM	696 nM		

Further lines, with some results ahead:

IC50 (PI 3-kinase alpha [1])	IC50 (PI 4-kinase beta)	IC50 (PI 3-kinase gamma [2])	Assay M RLM CI(int) [4]	IC50 (PI 3-kinase beta [5])	IC50 (Vps34)	IC50 (PI 3-kinase beta [6])	IC50 (PI 3-kinase delta [7])	IC50 (PI 3-kinase delta [8]; read-out: Assay F PI3Kδ IC50)	IC50 (mTOR)	IC50 (PI 3-kinase alpha [9])	IC50 (PI 3-kinase beta [10])	IC50 (PI 3-kinase delta [11])	IC50 (PI 3-kinase gamma [12])	IC50 (PI 3-kinase gamma [13])	IC50 [14]	IC50 (PI 3-kinase delta [8])	Structure (SMILES)	IC50 (PI 3-kinase alpha [3])
110 nM	1800 nM	9 nM	502 µL/min/mg	880 nM	3000 nM	2130 nM	580 nM	100 nM									Cc1ncc(-c2nc(-c3cc(S(=O)(=O)NCC4CCCCO4)ccc3C)cnc2N)s1 (stereo not drawn) [Example 45.4, 3-(5-Amino-6-(2-methylthiazol-5-yl)pyrazin-2-yl)-4-methyl-N-((tetrahydro-2H-pyran-2-yl)methyl)benzenesulfonamide]	1230 nM
30 nM	5280 nM	7 nM	55 µL/min/mg	1060 nM	> 9100 nM				1880 nM	720 nM	1430 nM	420 nM	11 nM	23 nM	232 nM	50 nM	Cc1ncc(-c2nc(-c3cc(S(=O)(=O)NC[C@H]4C[C@@H](O)C4)ccc3C)cnc2N)s1 [Example 20a, cis-3-[5-Amino-6-(2-methyl-thiazol-5-yl)-pyrazin-2-yl]-N-(3-hydroxy-cyclobutylmethyl)-4-methyl-benzenesulfonamide]	
50 nM	4980 nM	11 nM	30 µL/min/mg	880 nM	400 nM				3310 nM	660 nM	1730 nM	610 nM	14 nM	24 nM	106 nM	50 nM	Cc1ncc(-c2nc(-c3cc(S(=O)(=O)NC[C@H]4C[C@H](O)C4)ccc3C)cnc2N)s1 [Example 20b, trans-3-[5-Amino-6-(2-methyl-thiazol-5-yl)-pyrazin-2-yl]-N-(3-hydroxy-cyclobutylmethyl)-4-methyl-benzenesulfonamide]	
430 nM	1700 nM	25 nM	129 µL/min/mg	1400 nM	> 10000 nM			1400 nM	3900 nM	650 nM	> 3000 nM	6510 nM	172 nM	198 nM	1860 nM		Cc1ccc(S(=O)(=O)NC2CC2)cc1-c1cnc(N)c(-n2cncn2)n1 [Example 127.53]	
330 nM	6300 nM	50 nM	202 µL/min/mg	1100 nM	> 10000 nM			810 nM	7100 nM	> 10000 nM	2050 nM	> 10000 nM	85 nM	391 nM	847 nM		Cc1ccc(S(=O)(=O)NCC2(O)CCCC2)cc1-c1cnc(N)c(-n2cncn2)n1 [Example 127.35]	
